{
  "source": "patent US10028943B2",
  "about": "“Method for treatment of radiologically-dense breasts” (priority 2015, dated 2018)",
  "key": {"acute ischemic stroke": {"system": "acute ischemic stroke", "conditions": "Shuaib et al. N Engl J Med 2007; cited from earlier work"}, "breast density": {"system": "breast density", "test": "Extemporaneous oral TEMPOL-H treatment for fibrocystic disease of breast", "type": "in vivo, human", "conditions": "patient"}, "[1]": {"system": "mammography-established dense breasts", "test": "Treatment of dense breasts: oral reduced TEMPOL in a person", "type": "in vivo, human", "procedure": "The reduced form of TEMPOL (TEMPOL-H) or equivalent pharmacologically-active spin label/spintrap is prepared by mixing together 2 grams of TEMPOL or a pharmacologically effective amount of another spin-label or spin trap such as methynitrosopropane, 20 grams of ascorbic acid or other reducing compound in 100 ml of distilled water. The formulation is used as is. The solution is slightly-bitter. The formulation can be administered diluted in a suitable liquid such as juice, tea, or coffee. An equivalent dry form as 10 mg of tempol mixed with 100 mg of ascorbic acid or equivalent reducing substance can be easily prepared in capsule or tablet form.\nOne-half ml of the above solution, comprising 10 mg TEMPOL plus 100 mg ascorbic acid, was administered orally once a day to a 50 kg person with mammography-established dense breasts."}},
  "data": [
    {"smiles": "CC(C)(C)[N+]([O-])=Cc1ccc(S(=O)(=O)[O-])cc1S(=O)(=O)[O-].[Na+].[Na+]", "note": "[NXY-059, disulfonyl PBN]", "values": [
      {"measurement": "neuroprotective efficacy", "setting": "acute ischemic stroke", "result": "effective in animal models, but not in humans"}
    ]},
    {"smiles": "CC1(C)CC(O)CC(C)(C)N1O", "note": "[TEMPOL-H, the hydroxylamine reduced form of the nitroxide 4-hydroxy-2,2,6,6-tetramethylpiperidin-1-yloxy]", "values": [
      {"measurement": "clinical signs and symptoms upon cessation of treatment", "setting": "breast density; after cessation of treatment", "result": "reappeared within a few weeks"},
      {"measurement": "clinical signs and symptoms upon resumption of treatment", "setting": "breast density; after resumption of treatment", "result": "again regressed"},
      {"measurement": "clearing of breast density", "setting": "breast density; oral formulation of TEMPOL-H", "result": "significant clearing of breast density"},
      {"measurement": "mammographic clearing of breast densities", "setting": "[1]; 10 mg TEMPOL plus 100 mg ascorbic acid orally once a day, 50 kg person, first results after several weeks of treatment", "result": "significant mammographic clearing of breast densities"},
      {"measurement": "breast densities on cessation of treatment", "setting": "[1]; cessation of treatment for a few weeks", "result": "eventually reappear on cessation of treatment for a few weeks"},
      {"measurement": "breast densities upon reinstatement of treatment", "setting": "[1]; reinstatement of treatment", "result": "breast densities reoccur"}
    ]},
    {"smiles": "CC1(C)CC(O)CC(C)(C)N1[O]", "note": "[Tempol, 4-hydroxy-2,2,6,6-tetramethylpiperidin-1-yloxy]", "values": [
      {"measurement": "efficacy of unreduced Tempol itself", "setting": "[1]; same doses as reduced TEMPOL (10 mg)", "result": "effective at the same doses"}
    ]}
  ]
}
